{"source": "patent US20060166271A1", "about": "“Non-radioactive schilling test” (priority 2003, published 2006)", "key": {"[1]": {"conditions": "oral dose; cited from earlier work"}, "[2]": {"test": "Vitamin B12 absorption from serum vitamin B12, total TC and holo-TC before and after oral vitamin B12, healthy subjects", "assay_type": "in vivo, human", "conditions": "for Holo-TC, median: serum", "excerpt": "(§1) The subjects participating in the study were 31 healthy subjects recruited in October 2002. None of them suffered from known disorders related to vitamin B12 deficiency. Persons with chronic systemic disease, persons taking any kind of medical treatment, including vitamin tablets within the past week and persons not being able to give written informed consent were excluded. The age of the healthy subjects ranged from to 25 to 57 (mean 40) years. There were 9 men and 22 women. We further included seven patients (age 22-39 years, five men and two women) who had been referred to the out-patient clinic of internal medicine department during 2003 because vitamin B12 malabsorption was suspected. Three of the seven patients have previously been diagnosed as Crohn's disease. The diagnosis of the remaining four patients was not clear. Written informed consent was obtained from all subjects, and the Research Ethics Committee of Aarhus County approved the study protocol (2002.0224).\nThe absorption of vitamin B12 was evaluated from analysis of serum vitamin B12, total TC, and holo-TC on samples obtained before and after oral administration of vitamin B12.\n(§2) In healthy subjects samples were taken at 8:00 a.m. on the day before vitamin B12 intake (−1) and on day 0, 1, 2, and 6. After the blood sample was removed on day 0, an oral dose of 9 μg vitamin B12 (Natur Drogeriet A/S, Hoerning, Denmark) was given three times, with 6 h between the doses (8 a.m., 2 p.m., and 8 p.m. (time points were allowed to deviate ±45 min). One healthy subject was unavailable for delivering a blood sample on day 6. The absorption of vitamin B12 in seven patients was evaluated by the Schilling test I and by the design mentioned above except that the blood samples were obtained only on day 0 and day 1. The Schilling test I was performed after our alternative approach.\nThe vitamin B12 tablets were given with either water or orange juice. The subjects were allowed to have a light breakfast 30 to 60 min before blood sampling, not including any diary products, but were otherwise allowed to eat their normal diet. The blood samples were centrifuged within 60 minutes and were stored at −80° C. until further processed.\nSerum vitamin B12 was determined by a commercial method (Bayer corporation, NY) on a Centaur equipment (analytical imprecision<10%). Serum total TC and holo-TC were measured by ELISA as recently described (Nexø et al., 2000; 2002), but modified to allow the use of an automated ELISA analyser (BEP-2000, Dade Behring, Germany). The following modification was performed; all incubations were performed at 37° C. The analytical imprecision was 7% for total TC (mean=934 pmol/L, n=91) and 8% for holo-TC (mean=38 pmol/L, n=41). The controls were run over 12 months for total TC and 6 months for holo-TC. The reference interval was established from analysing 161 samples obtained from healthy blood donors (age interval; 21-65). The reference interval was 700-1400 pmol/L for total TC, ≧50 pmol/L for holo-TC and ≧0.05 for TC saturation. Haematological parameters were analysed on the Coulter Counter (Beckman Coulter CA). Plasma creatinine was measured using the Jaffe method and a Roche Cobas integra 700 autoanalyzer (analytical imprecision <3%).\nAlterations (increase or decrease) in parameters as a function of time were analysed by comparing the changes obtained on the same individuals relative to baseline (day 0) with the theoretical median “0” assigned for day 0. […] P-values <5% were regarded as statistically significant. Data were analysed using SPSS10.0 (SPSS Inc.) and the GraphPad (Prism2) software."}, "[3]": {"test": "Schilling test I (urinary excretion of radioactive vitamin B12 over 24 hours)", "assay_type": "in vivo, human", "conditions": "individual patients with Crohn's disease; 1 μg oral Co-57 tagged vitamin B12, 24 hour urine; normal 10-40%", "protocol": "as §2\nThe Schilling test I was performed as described previously (Chanarin, 1979). Briefly, a fasting patient is given a 1 μg oral dose of vitamin B12, which is tagged with radioactive cobalt (Co-57). Two hours after the oral dose the patient is then injected intramuscularly with 1000 μg of non-labeled vitamin B12. A 24 hour urine collection is initiated. The percentage of the administered dose excreted in the urine over 24 hours is then determined. Urinary excretion of 10-40% of the administered dose is considered normal."}, "[4]": {"test": "Vitamin B12 absorption from serum holo-TC and TC saturation before and after oral vitamin B12, patients with suspected malabsorption", "assay_type": "in vivo, human", "conditions": "individual patients with Crohn's disease, day 1-day 0, oral 3 times 9 μg", "excerpt": "as §1, with “The diagnosis of the remaining four patients was not clear. Written informed consent was obtained from all subjects, and the Research Ethics Committee of Aarhus County approved the study protocol (2002.0224).” left out\nThe absorption of vitamin B12 was evaluated from analysis of serum vitamin B12, total TC, and holo-TC on samples obtained before and after oral administration of vitamin B12. […]\nSerum vitamin B12 was determined by a commercial method (Bayer corporation, NY) on a Centaur equipment (analytical imprecision<10%). Serum total TC and holo-TC were measured by ELISA as recently described (Nexø et al., 2000; 2002), but modified to allow the use of an automated ELISA analyser (BEP-2000, Dade Behring, Germany). […] Haematological parameters were analysed on the Coulter Counter (Beckman Coulter CA). […]"}, "[5]": {"conditions": "DAY 1 after oral 3 times 9 μg vitamin B12, 31 healthy subjects"}, "[6]": {"conditions": "DAY 2 after oral 3 times 9 μg vitamin B12, 31 healthy subjects"}, "[7]": {"conditions": "DAY 6 after oral 3 times 9 μg vitamin B12, 31 healthy subjects"}, "[8]": {"conditions": "control subjects after omitting outliers (n=2)"}, "[9]": {"conditions": "one day after oral dose of three times 9 μg, healthy subjects (discussion)"}, "[10]": {"conditions": "relative to baseline (day 0), oral 3 times 9 μg, healthy subjects"}, "[11]": {"conditions": "relative to baseline (day 0), oral 3 times 9 μg, n=31 healthy subjects"}}, "note": "Several values for one entry are separate records, joined by “and”; a condition that tells them apart may be missing. Equal values may be shown once.", "data": [{"substance": "cobalamin [vitamin B12]", "values": [{"measurement": "Refractory phase with less absorption after ingestion of a dose", "setting": "[1]", "value": "about 3 hours"}, {"measurement": "Serum vitamin B12, median", "setting": "[2]; [5]", "value": 279, "unit": "pmol/L"}, {"measurement": "TC saturation (holo-TC/total-TC), median", "setting": "[2]; [5]", "value": 0.13, "unit": "fraction"}, {"measurement": "Holo-TC, median", "setting": "[2]; [5]", "value": 118, "unit": "pmol/L"}, {"measurement": "Serum vitamin B12, median", "setting": "[2]; [6]", "value": 253, "unit": "pmol/L"}, {"measurement": "TC saturation (holo-TC/total-TC), median", "setting": "[2]; [6]", "value": 0.11, "unit": "fraction"}, {"measurement": "Holo-TC, median", "setting": "[2]; [6]", "value": 87, "unit": "pmol/L"}, {"measurement": "Serum vitamin B12, median", "setting": "[2]; [7]", "value": 260, "unit": "pmol/L"}, {"measurement": "TC saturation (holo-TC/total-TC), median", "setting": "[2]; [7]", "value": 0.09, "unit": "fraction"}, {"measurement": "Holo-TC, median", "setting": "[2]; [7]", "value": 80, "unit": "pmol/L"}, {"measurement": "Minimum increase for TC saturation (day 1-day 0)", "setting": "[2]; [8]", "value": 0.02}, {"measurement": "Minimum increase for holo-TC (day 1-day 0)", "setting": "[2]; [8]", "value": 15, "unit": "pmol/L"}, {"measurement": "Increase of TC saturation, median value", "setting": "[2]; [9]", "value": "around 50%"}, {"measurement": "Increase of holo TC, median value", "setting": "[2]; [9]", "value": "around 50%"}, {"measurement": "Absolute increase in serum vitamin B12, median (range)", "setting": "[2]; [10]", "value": "36 (−27-290) pmol/L"}, {"measurement": "Percentage increase in serum vitamin B12, median (range)", "setting": "[2]; [10]", "value": "14 (−8-+51) % and 14%"}, {"measurement": "Maximal absolute increase in TC saturation, median (range)", "setting": "[2]; [11]", "value": "0.04 (0-0.23) fraction"}, {"measurement": "Maximal absolute increase in holo-TC, median (range)", "setting": "[2]; [11]", "value": "34 (0-149) pmol/L"}, {"measurement": "Maximal percentage increase in TC saturation, median (range)", "setting": "[2]; [11]", "value": "52 (−2-+128) %"}, {"measurement": "Maximal percentage increase in holo-TC, median (range)", "setting": "[2]; [11]", "value": "39 (0-+108) %"}, {"measurement": "Schilling test I, percentage of vitamin B12 excreted in the urine", "setting": "[3]", "value": "2% and 10% and 15%"}, {"measurement": "Increase in TC saturation after vitamin B12 intake", "setting": "[4]", "value": "0.004 and 0.01 (2×)"}, {"measurement": "Increase in holo-TC after vitamin B12 intake", "setting": "[4]", "value": "3 pmol/L and 7 pmol/L and 14 pmol/L"}]}]}
